Key:
Type in all cases: ADME, cell-based
Details in all cases: nih3t3; call rule not given here
[1] = Drug uptake in mouse NIH/3T3 cells assessed as fluorescent optical switching measured after continuous irradiation at 546 and 365 nm light by optical lock-in detection imaging microscopy
[2] = Drug uptake in mouse NIH/3T3 cells assessed as fluorescent optical switching measured after continuous irradiation at 546 nm light by optical lock-in detection imaging microscopy; design: dose or concentration left out as unconfirmed
[3] = Drug uptake in mouse NIH/3T3 cells assessed as fluorescent optical switching measured after every 2 s with 100 ms pulse of 365 nm irradiation by optical lock-in detection imaging microscopy

Drug uptake [1] | Drug uptake [2] | Drug uptake [3] | Structure (SMILES)
Active | – | – | CN(C)c1ccc2c(-c3ccc(C(=O)NCCCOc4ccc5ccc6c(c5c4)N=CC4(O6)N(C)c5ccc(CCCC(=O)ON6C(=O)CCC6=O)cc5C4(C)C)cc3C(=O)[O-])c3ccc(=[N+](C)C)cc-3oc2c1 (centres undefined)
Active | – | – | CN(C)c1ccc2c(-c3ccc(C(=O)NCCc4ccc5c(c4)C(C)(C)C4(C=Nc6c(ccc7ccccc67)O4)N5C)cc3C(=O)[O-])c3ccc(=[N+](C)C)cc-3oc2c1 (centres undefined)
Active | – | – | CN(C)c1ccc2c(-c3ccc(C(=O)NCCCOc4ccc5ccc6c(c5c4)N=CC4(O6)N(CCCCCC(=O)ON5C(=O)CCC5=O)c5ccccc5C4(C)C)cc3C(=O)[O-])c3ccc(=[N+](C)C)cc-3oc2c1 (centres undefined)

Second part, the molecule before the results:

Structure (SMILES) | Drug uptake [1] | Drug uptake [2] | Drug uptake [3]
CN(C)c1ccc2c(-c3ccc(C(=O)NCc4cccc5c4C(C)(C)C4(C=Nc6c(ccc7ccc(O)cc67)O4)N5C)cc3C(=O)[O-])c3ccc(=[N+](C)C)cc-3oc2c1 (centres undefined) | Active | – | –
COc1ccc2ccc3c(c2c1)N=CC1(O3)N(C)c2cccc(CNC(=O)c3ccc(-c4c5ccc(=[N+](C)C)cc-5oc5cc(N(C)C)ccc45)c(C(=O)[O-])c3)c2C1(C)C (centres undefined) | Active | Active | –
CN(C)c1ccc2c(-c3ccc(C(=O)NCc4cccc5c4C(C)(C)C4(C=Nc6c(ccc7ccccc67)O4)N5C)cc3C(=O)[O-])c3ccc(=[N+](C)C)cc-3oc2c1 (centres undefined) | Active | – | Active
CN(C)c1ccc2c(-c3ccc(C(=O)NC(CCCCNC(=O)CCCc4ccc5c(c4)C(C)(C)C4(C=Nc6c(ccc7ccccc67)O4)N5C)C(=O)O)cc3C(=O)[O-])c3ccc(=[N+](C)C)cc-3oc2c1 (centres undefined) | Active | – | –

— ChEMBL document CHEMBL1667741, “Rational design, synthesis, and characterization of highly fluorescent optical switches for high-contrast optical lock-in detection (OLID) imaging microscopy in living cells” (Bioorg Med Chem, 2011)
